Test system: resectable non-small cell lung cancer (R-NSCLC)
Assay: AEGEAN phase III: event-free survival (EFS) by blinded independent central review
Type: in vivo, human
Source text: As used herein, the terms “event-free survival” or “EFS” refer to the time from randomization to the first of the following: a) local or distant recurrence as determined by BICR using RECIST 1.1 assessments; b) death due to any cause (event date is the date of death); c) PD that precludes surgery (event date is the date of this determination) or PD discovered and reported by the Investigator upon attempting surgery that prevents completion of surgery (event date is the date of the first attempt at surgery). Event-free survival can be analyzed using the log-rank test based on blinded independent central review (BICR) assessment using RECIST v1.1 and pathology review stratified by disease stage (Stage II versus Stage III) and by PD-L1 expression status (<1% versus >1%) on the mITT. The p-value can be obtained from the stratified log-rank test using the Efron (Hertz-Picciotto and Rockhill “Validity and efficiency of approximation methods for tied survival times in Cox regression.” Biometrics 1997; 53(3):1151-6.) approach for handling ties.
The AEGEAN (NCT03800134) study described herein is a phase III, double-blind, placebo-controlled, multi-center international study of assessed perioperative (i.e. neoadjuvant and adjuvant) durvalumab plus neoadjuvant chemotherapy for the treatment of patients with resectable stage II and stage III non-small cell lung cancer (R-NSCLC).
The study enrolled approximately 1300 patients and randomized approximately 800 eligible patients. Eligible patients had newly diagnosed, previously untreated, histologically or cytologically documented, resectable NSCLC (stage IIA to select [N2] stage IIIB according to the American Joint Committee on Cancer [AJCC] Cancer Staging Manual, version 8). Patients were randomized in a 1:1 ratio to receive either durvalumab plus a platinum-based chemotherapy before surgery followed by durvalumab post-surgery (Arm 1; a platinum-based chemotherapy plus durvalumab intravenously every three weeks (four cycles) before surgery, followed by durvalumab intravenously every four weeks (12 cycles)) or placebo plus a platinum-based chemotherapy before surgery followed by placebo post-surgery (Arm 2; a platinum-based chemotherapy plus placebo intravenously every three weeks (four cycles) before surgery, followed by placebo intravenously every four weeks (12 cycles)). Patients were also stratified by disease stage (Stage II versus Stage III) and by PD-L1 expression status (<1% versus ≥1%).
The two primary efficacy endpoints in this study were event-free survival (EFS; per blinded independent central review [BICR]) and pathological complete response (pCR; evaluated centrally). […]
Comparisons between the study arms were analyzed using stratified log-rank tests. […]

[1] = mITT subgroup, durvalumab versus placebo, unstratified Cox model

**Q.** What does the source list for “Durvalumab: antibody that selectively binds PD-L1 and blocks binding of PD-L1 to PD-1 and CD80; arm given with platinum-based chemotherapy before surgery”?
**A.** EFS stratified hazard ratio, durvalumab arm versus placebo arm (mITT N=740, BICR, first interim analysis, 31.9% maturity, data cut-off Nov. 10, 2022): 0.68; EFS HR, planned neoadjuvant platinum agent carboplatin [1]: 0.73; EFS HR, planned neoadjuvant platinum agent cisplatin [1]: 0.59; median EFS (mITT, BICR, first interim analysis, 31.9% maturity): not reached

— patent US20260284189A1, “TREATMENT OF NON-SMALL CELL LUNG CANCER” (ASTRAZENECA AB, priority 2023, published 2026)
